Experimental data from patent publication US20170050961A1, “IMIDAZO[1,2-A]PYRIDINES AS SOLUBLE GUANYLATE CYCLASE STIMULATORS FOR THE TREATMENT OF CARDIOVASCULAR DISEASES” (BAYER PHARMA AKTIENGESELLSCHAFT, priority 2014, published 2017).

target: T1, recombinant guanylate cyclase reporter cell line (Rattus norvegicus, UniProt P19686+P20595); assay: Effect on a recombinant guanylate cyclase reporter cell line; assay type: cell-based; conditions: MEC=minimum effective concentration; in some cases as mean values for individual determinations
T1 construct: expressed in transfected cells
T1 sequence (P19686 1-690): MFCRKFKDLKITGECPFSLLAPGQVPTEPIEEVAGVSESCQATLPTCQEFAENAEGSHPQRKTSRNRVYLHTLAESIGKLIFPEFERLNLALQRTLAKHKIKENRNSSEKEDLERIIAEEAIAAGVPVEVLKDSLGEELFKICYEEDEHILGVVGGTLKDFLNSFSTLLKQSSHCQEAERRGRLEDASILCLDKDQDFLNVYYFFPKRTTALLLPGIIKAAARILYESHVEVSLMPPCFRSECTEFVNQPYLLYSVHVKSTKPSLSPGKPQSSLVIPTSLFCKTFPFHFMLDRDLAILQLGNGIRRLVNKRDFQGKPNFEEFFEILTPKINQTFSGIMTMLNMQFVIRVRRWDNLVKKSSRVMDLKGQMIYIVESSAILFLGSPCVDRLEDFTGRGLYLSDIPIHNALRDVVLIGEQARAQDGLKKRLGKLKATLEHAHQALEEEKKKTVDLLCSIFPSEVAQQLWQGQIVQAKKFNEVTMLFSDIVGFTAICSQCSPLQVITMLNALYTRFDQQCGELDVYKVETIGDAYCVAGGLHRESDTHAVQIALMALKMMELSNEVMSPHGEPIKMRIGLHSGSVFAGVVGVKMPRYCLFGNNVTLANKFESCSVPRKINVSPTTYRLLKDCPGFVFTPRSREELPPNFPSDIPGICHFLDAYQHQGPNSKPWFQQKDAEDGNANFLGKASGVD
T1 sequence (P20595 1-619): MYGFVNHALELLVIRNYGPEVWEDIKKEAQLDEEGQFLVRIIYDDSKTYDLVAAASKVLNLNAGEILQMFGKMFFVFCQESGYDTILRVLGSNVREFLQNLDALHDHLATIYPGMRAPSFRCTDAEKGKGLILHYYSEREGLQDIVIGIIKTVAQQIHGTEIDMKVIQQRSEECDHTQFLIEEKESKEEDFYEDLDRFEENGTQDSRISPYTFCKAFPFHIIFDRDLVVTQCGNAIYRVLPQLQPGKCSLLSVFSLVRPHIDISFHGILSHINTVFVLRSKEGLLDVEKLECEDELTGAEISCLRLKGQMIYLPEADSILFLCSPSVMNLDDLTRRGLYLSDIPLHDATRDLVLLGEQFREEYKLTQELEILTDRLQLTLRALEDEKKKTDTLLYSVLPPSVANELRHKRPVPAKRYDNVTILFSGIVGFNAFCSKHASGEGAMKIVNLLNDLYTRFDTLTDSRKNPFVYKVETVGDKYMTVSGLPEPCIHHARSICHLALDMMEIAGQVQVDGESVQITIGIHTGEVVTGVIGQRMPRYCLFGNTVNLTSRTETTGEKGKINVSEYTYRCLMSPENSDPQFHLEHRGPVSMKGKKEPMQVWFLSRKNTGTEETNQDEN
Method: B-2. Effect on a Recombinant Guanylate Cyclase Reporter Cell Line
The cellular activity of the compounds of the invention is determined using a recombinant guanylate cyclase reporter cell line, as described in F. Wunder et al., Anal Biochem. 339, 104-112 (2005).
Representative MEC values (MEC=minimum effective concentration) for the compounds of the invention are shown in the table below (in some cases as mean values for individual determinations): […]

| MEC | Compound |
| --- | --- |
| 0.03 µM | CCC(C)(N)CNC(=O)c1c(Cl)nc2c(OCc3c(F)cccc3F)cc(C)cn12 (single isomer, unassigned; enantiomer a) [Example 21, ent-N-(2-Amino-2-methylbutyl)-2-chloro-8-[(2,6-difluorobenzyl)oxy]-6-methylimidazo[1,2-a]pyridine-3-carboxamide (enantiomer A)] |
| 3.0 µM | CCC(C)(N)CNC(=O)c1c(C)nc2c(OCc3c(F)cccc3F)cc(OC(F)F)cn12 (racemic) [Example 5, rac-N-(2-Amino-2-methylbutyl)-8-[(2,6-difluorobenzyl)oxy]-6-(difluoromethoxy)-2-methylimidazo[1,2-a]pyridine-3-carboxamide] |
| 1.0 µM | CCC(C)(N)CNC(=O)c1c(C)nc2c(OCc3c(F)cccc3F)cc(-c3cnco3)cn12 (racemic) [Example 7, rac-N-(2-Amino-2-methylbutyl)-8-[(2,6-difluorobenzyl)oxy]-2-methyl-6-(1,3-oxazol-5-yl)imidazo[1,2-a]pyridine-3-carboxamide] |
| 0.1 µM | CCCC(C)(N)CNC(=O)c1c(Cl)nc2c(OCc3c(F)cccc3F)cc(C)cn12 (single isomer, unassigned; enantiomer a) [Example 24, ent-N-(2-Amino-2-methylpentyl)-2-chloro-8-[(2,6-difluorobenzyl)oxy]-6-methylimidazo[1,2-a]pyridine-3-carboxamide (enantiomer A)] |
| 3.0 µM | CCC(C)(N)CNC(=O)c1c(C)nc2c(OCc3c(F)cccc3F)cc(COC)cn12.Cl (racemic) [Example 4, rac-N-(2-Amino-2-methylbutyl)-8-[(2,6-difluorobenzyl)oxy]-6-(methoxymethyl)-2-methylimidazo[1,2-a]pyridine-3-carboxamide hydrochloride] |
| 0.1 µM | CCC(C)(N)CNC(=O)c1c(Cl)nc2c(OCc3c(F)cccc3F)cc(C)cn12 (single isomer, unassigned; enantiomer b) [Example 22, ent-N-(2-Amino-2-methylbutyl)-2-chloro-8-[(2,6-difluorobenzyl)oxy]-6-methylimidazo[1,2-a]pyridine-3-carboxamide (enantiomer B)] |
| 0.07 µM | CCC(C)(N)CNC(=O)c1c(Cl)nc2c(OCc3c(F)cccc3F)cc(C)cn12 (racemic) [Example 20] |
| 10 µM | CCC(C)(N)CNC(=O)c1c(C)nc2c(OCc3c(F)cccc3F)cc(-c3cccnc3)cn12 (racemic) [Example 1, rac-N-(2-Amino-2-methylbutyl)-8-[(2,6-difluorobenzyl)oxy]-2-methyl-6-(pyridin-3-yl)imidazo[1,2-a]pyridine-3-carboxamide] |
| 0.3 µM | Cc1cc(OCc2ncccc2F)c2nc(C)c(C(=O)NCC(C)(N)CCC(F)(F)F)n2c1 (single isomer, unassigned; enantiomer b) [Example 9, ent-N-(2-Amino-5,5,5-trifluoro-2-methylpentyl)-8-[(3-fluoropyridin-2-yl)methoxy]-2,6-dimethylimidazo[1,2-a]pyridine-3-carboxamide (enantiomer B)] |

| Compound | MEC |
| --- | --- |
| Cc1cc(OCc2c(F)cccc2F)c2nc(C)c(C(=O)NCC(C)(N)CC[Si](C)(C)C)n2c1 (single isomer, unassigned; enantiomer a) [Example 13, ent-N-[2-Amino-2-methyl-4-(trimethylsilyl)butyl]-8-[(2,6-difluorobenzyl)oxy]-2,6-dimethylimidazo[1,2-a]pyridine-3-carboxamide (enantiomer A)] | 0.3 µM |
| Cc1cc(OCc2c(F)cccc2F)c2nc(C)c(C(=O)NCC(C)(N)CCC[Si](C)(C)C)n2c1 (single isomer, unassigned; enantiomer b) [Example 16, ent-N-[2-Amino-2-methyl-5-(trimethylsilyl)pentyl]-8-[(2,6-difluorobenzyl)oxy]-2,6-dimethylimidazo[1,2-a]pyridine-3-carboxamide (enantiomer B)] | 1.0 µM |
